Reference: publication PMC9736374, “Design, Synthesis and Antimicrobial Properties of New Tetracyclic Quinobenzothiazine Derivatives” (International Journal of Molecular Sciences, 2022)

test system: Staphylococcus aureus ATCC 29213; test: MIC, microtitration broth method; format: cell-based; conditions: ATCC29213; SA = Staphylococcus aureus ATCC 29213; 24 h, 37 °C

| Compound | MIC |
| --- | --- |
| C[n+]1cc2c(c3ccccc31)Nc1ccc(OCc3ccccc3)cc1S2 [Compound 6j, 9-benzyloxy-5-methyl-12H-quino[3,4-b][1,4]benzothiazinium chloride] | 9.83 µM |

test system: methicillin-resistant S. aureus SA 3202 (MRSA1); test: MIC, microtitration broth method; format: cell-based; conditions: Staphylococcus aureus; MRSA1 = SA 3202; 24 h, 37 °C

| Compound | MIC |
| --- | --- |
| C[n+]1cc2c(c3ccccc31)Nc1ccc(OCc3ccccc3)cc1S2 [Compound 6j, 9-benzyloxy-5-methyl-12H-quino[3,4-b][1,4]benzothiazinium chloride] | 4.91 µM |

test system: methicillin-resistant S. aureus SA 630 (MRSA2); test: MIC, microtitration broth method; format: cell-based; conditions: Staphylococcus aureus; MRSA2 = SA 630; 24 h, 37 °C

| Compound | MIC |
| --- | --- |
| C[n+]1cc2c(c3ccccc31)Nc1ccc(OCc3ccccc3)cc1S2 [Compound 6j, 9-benzyloxy-5-methyl-12H-quino[3,4-b][1,4]benzothiazinium chloride] | 9.83 µM |

test system: methicillin-resistant S. aureus 63718 (MRSA3); test: MIC, microtitration broth method; format: cell-based; conditions: Staphylococcus aureus; MRSA3 = 63718; 24 h, 37 °C

| Compound | MIC |
| --- | --- |
| C[n+]1cc2c(c3ccccc31)Nc1ccc(OCc3ccccc3)cc1S2 [Compound 6j, 9-benzyloxy-5-methyl-12H-quino[3,4-b][1,4]benzothiazinium chloride] | 2.46 µM |

test system: Enterococcus faecalis ATCC 29212; test: MIC, microtitration broth method; format: cell-based; conditions: ATCC29212; EF = Enterococcus faecalis; 24 h, 37 °C

| Compound | MIC |
| --- | --- |
| C[n+]1cc2c(c3ccccc31)Nc1ccc(OCc3ccccc3)cc1S2 [Compound 6j, 9-benzyloxy-5-methyl-12H-quino[3,4-b][1,4]benzothiazinium chloride] | 19.7 µM |

test system: vancomycin-resistant E. faecalis VRE 342B (VRE1); test: MIC, microtitration broth method; format: cell-based, Enterococcus faecalis; conditions: VRE1 = VRE 342B; 24 h, 37 °C

| Compound | MIC |
| --- | --- |
| C[n+]1cc2c(c3ccccc31)Nc1ccc(OCc3ccccc3)cc1S2 [Compound 6j, 9-benzyloxy-5-methyl-12H-quino[3,4-b][1,4]benzothiazinium chloride] | 19.7 µM |

test system: vancomycin-resistant E. faecalis VRE 368 (VRE2); test: MIC, microtitration broth method; format: cell-based, Enterococcus faecalis; conditions: VRE2 = VRE 368; 24 h, 37 °C

| Compound | MIC |
| --- | --- |
| C[n+]1cc2c(c3ccccc31)Nc1ccc(OCc3ccccc3)cc1S2 [Compound 6j, 9-benzyloxy-5-methyl-12H-quino[3,4-b][1,4]benzothiazinium chloride] | 78.6 µM |

test system: vancomycin-resistant E. faecalis VRE 725B (VRE3); test: MIC, microtitration broth method; format: cell-based, Enterococcus faecalis; conditions: VRE3 = VRE 725B; 24 h, 37 °C

| Compound | MIC |
| --- | --- |
| C[n+]1cc2c(c3ccccc31)Nc1ccc(OCc3ccccc3)cc1S2 [Compound 6j, 9-benzyloxy-5-methyl-12H-quino[3,4-b][1,4]benzothiazinium chloride] | 39.3 µM |

test system: M. smegmatis ATCC 700084; test: In vitro antimycobacterial MIC, broth dilution micro-method; format: cell-based, Mycobacterium smegmatis; conditions: Mycolicibacterium smegmatis, ATCC700084, 72 h; MS = M. smegmatis ATCC 700084; 3 days, 37 °C

| Compound | MIC |
| --- | --- |
| C[n+]1cc2c(c3ccccc31)Nc1ccc(OCc3ccccc3)cc1S2 [Compound 6j, 9-benzyloxy-5-methyl-12H-quino[3,4-b][1,4]benzothiazinium chloride] | 9.83 µM |

test system: Mycobacterium marinum CAMP 5644; test: as above; format: cell-based; conditions: CAMP5644, 504 h; MM = Mycobacterium marinum CAMP 5644; 21 days, 28 °C

| Compound | MIC |
| --- | --- |
| C[n+]1cc2c(c3ccccc31)Nc1ccc(OCc3ccccc3)cc1S2 [Compound 6j, 9-benzyloxy-5-methyl-12H-quino[3,4-b][1,4]benzothiazinium chloride] | 2.5 µM |

test system: Staphylococcus aureus ATCC 29213; test: MBC, agar aliquot subculture method; format: cell-based; conditions: ATCC29213; SA = Staphylococcus aureus ATCC 29213

| Compound | MBC |
| --- | --- |
| C[n+]1cc2c(c3ccccc31)Nc1ccc(OCc3ccccc3)cc1S2 [Compound 6j, 9-benzyloxy-5-methyl-12H-quino[3,4-b][1,4]benzothiazinium chloride] | 9.83 µM |

test system: methicillin-resistant S. aureus SA 3202 (MRSA1); test: MBC, agar aliquot subculture method; format: cell-based; conditions: Staphylococcus aureus; MRSA1 = SA 3202

| Compound | MBC |
| --- | --- |
| C[n+]1cc2c(c3ccccc31)Nc1ccc(OCc3ccccc3)cc1S2 [Compound 6j, 9-benzyloxy-5-methyl-12H-quino[3,4-b][1,4]benzothiazinium chloride] | 9.83 µM |

test system: methicillin-resistant S. aureus SA 630 (MRSA2); test: MBC, agar aliquot subculture method; format: cell-based; conditions: Staphylococcus aureus; MRSA2 = SA 630

| Compound | MBC |
| --- | --- |
| C[n+]1cc2c(c3ccccc31)Nc1ccc(OCc3ccccc3)cc1S2 [Compound 6j, 9-benzyloxy-5-methyl-12H-quino[3,4-b][1,4]benzothiazinium chloride] | 9.83 µM |

test system: methicillin-resistant S. aureus 63718 (MRSA3); test: MBC, agar aliquot subculture method; format: cell-based; conditions: Staphylococcus aureus; MRSA3 = 63718

| Compound | MBC |
| --- | --- |
| C[n+]1cc2c(c3ccccc31)Nc1ccc(OCc3ccccc3)cc1S2 [Compound 6j, 9-benzyloxy-5-methyl-12H-quino[3,4-b][1,4]benzothiazinium chloride] | 2.46 µM |

test system: Enterococcus faecalis ATCC 29212; test: MBC, agar aliquot subculture method; format: cell-based; conditions: ATCC29212; EF = Enterococcus faecalis

| Compound | MBC |
| --- | --- |
| C[n+]1cc2c(c3ccccc31)Nc1ccc(OCc3ccccc3)cc1S2 [Compound 6j, 9-benzyloxy-5-methyl-12H-quino[3,4-b][1,4]benzothiazinium chloride] | 39.3 µM |

test system: vancomycin-resistant E. faecalis VRE 342B (VRE1); test: MBC, agar aliquot subculture method; format: cell-based, Enterococcus faecalis; conditions: VRE1 = VRE 342B

| Compound | MBC |
| --- | --- |
| C[n+]1cc2c(c3ccccc31)Nc1ccc(OCc3ccccc3)cc1S2 [Compound 6j, 9-benzyloxy-5-methyl-12H-quino[3,4-b][1,4]benzothiazinium chloride] | 19.7 µM |

test system: vancomycin-resistant E. faecalis VRE 368 (VRE2); test: MBC, agar aliquot subculture method; format: cell-based, Enterococcus faecalis; conditions: VRE2 = VRE 368

| Compound | MBC |
| --- | --- |
| C[n+]1cc2c(c3ccccc31)Nc1ccc(OCc3ccccc3)cc1S2 [Compound 6j, 9-benzyloxy-5-methyl-12H-quino[3,4-b][1,4]benzothiazinium chloride] | 78.6 µM |

test system: vancomycin-resistant E. faecalis VRE 725B (VRE3); test: MBC, agar aliquot subculture method; format: cell-based, Enterococcus faecalis; conditions: VRE3 = VRE 725B

| Compound | MBC |
| --- | --- |
| C[n+]1cc2c(c3ccccc31)Nc1ccc(OCc3ccccc3)cc1S2 [Compound 6j, 9-benzyloxy-5-methyl-12H-quino[3,4-b][1,4]benzothiazinium chloride] | 39.3 µM |

test system: normal human dermal fibroblasts (NHDF); test: In vitro cell viability, WST-1 assay; format: cell-based; conditions: 72 h
Description: Compounds were evaluated for their antiproliferative activity using NHDF (normal human dermal fibroblasts, ATCC, Manassas, VA, USA). The cultured cells were kept at 37 °C and 5% CO2. The cells were seeded (1 × 10^4 cells/well/100 μL DMEM supplemented with 10% FCS and streptomycin/penicillin) into 96-well plates (Corning Inc., Corning, NY, USA). Cells were counted using a hemocytometer (Burker chamber) and phase contrast Olympus IX50 microscope equipped with Sony SSC-DC58 AP camera and Olympus DP10 digital camera. The cell viability of the compounds was determined using the Cell Proliferation Reagent WST-1 assay (Roche Molecular Biochemicals, Mannheim, Germany). The examined cells were exposed to the tested compounds (1 mg/mL DMSO stock) for 72 h at various concentrations (0.1–100 μg/mL). The control was included in order to eliminate the DMSO effect at the concentration used. Cell cultures were incubated with WST-1 (10 μL) for 1 h. The absorbance of the samples was measured against a background control at 450 nm using a microplate reader with a reference wavelength at 600 nm. The obtained results are expressed as means of at least two independent experiments performed in triplicate.

| Compound | IC50 |
| --- | --- |
| C[n+]1cc2c(c3ccccc31)Nc1ccc(OCc3ccccc3)cc1S2 [Compound 6j, 9-benzyloxy-5-methyl-12H-quino[3,4-b][1,4]benzothiazinium chloride] | 37.7 µM |

test system: not listed separately; test: Lipophilicity by RP-TLC; format: physicochemical; conditions: Tris buffer pH 7.4/acetone, read-out: logPTLC
Description: The lipophilicity parameters were determined experimentally using reverse phase thin-layer chromatography (RP-TLC). Chromatograms were prepared on RP-18F254s plates (1.05559.0001, Merck, Germany) precoated with nonpolar silicone oil. Plates were developed in glass chromatography chambers previously saturated with vapor of mobile phase. The mobile phase was composed of 0.2M Tris buffer (pH = 7.4) and acetone in different concentrations, i.e., 50%, 60%, 70%, 80 and 90%. The chromatograms were visualised in UV light (λ = 254 nm). Determination of the RF coefficient was carried out twice for all compounds; in all cases, acetone concentrations used. The final value of RF is the mean of the two measurements. The obtained RF coefficient was used to calculate the value of the RM parameter according to the equation: RM = log [(1/RF) − 1]. By extrapolating RM values to zero acetone concentration, a relative RM0 lipophilicity parameter was obtained, according to the equation: RM = RM0 + bC, where b is slope and C is concentration of acetone in mobile phase. Based on RM0 and the calibration curve, the values of logPTLC for compounds 6a–l were determined. The calibration curve was calculated using the relationship between RM0 of the standard molecules (acetanilide, p-kresol, p-bromoacetophenone, benzophenone, anthracene) and the corresponding logP parameters specified by the extraction method, respectively. RM0 parameters of the standard molecules and quinobenzothiazine derivatives 6a–l were determined in the same empirical conditions.

| Compound | chromatographic logP |
| --- | --- |
| C[n+]1cc2c(c3ccccc31)Nc1ccc(OCc3ccccc3)cc1S2 [Compound 6j, 9-benzyloxy-5-methyl-12H-quino[3,4-b][1,4]benzothiazinium chloride] | 3.41 |

test system: S. aureus ATCC 29213 respiratory activity; test: MTT assay of bacterial respiration; format: cell-based, Staphylococcus aureus; conditions: at the concentration given

| Compound | S. aureus Respiration Inhibition |
| --- | --- |
| C[n+]1cc2c(c3ccccc31)Nc1ccc(OCc3ccccc3)cc1S2 [Compound 6j, 9-benzyloxy-5-methyl-12H-quino[3,4-b][1,4]benzothiazinium chloride] | 91.3% |

test system: S. aureus; test: Crystal violet uptake (membrane permeability); format: cell-based, Staphylococcus aureus; conditions: 4× MIC, 1 h; compared to growth control and 1% Tween 20
Description: Phenothiazines are also known for their ability to interact with and damage the cell wall, which has fatal consequences for the microorganism. Therefore, the bacterial suspensions were treated by compounds 6a, 6e, 6g, 6j and 6k (4× MIC) for 1 h. The uptake of crystal violet was expressed as a percentage compared to the original crystal violet solution.

| Compound | Effect on plasma membrane permeability (uptake of crystal violet) |
| --- | --- |
| C[n+]1cc2c(c3ccccc31)Nc1ccc(OCc3ccccc3)cc1S2 [Compound 6j, 9-benzyloxy-5-methyl-12H-quino[3,4-b][1,4]benzothiazinium chloride] | did not affect plasma membrane permeability |
